Experiments:
[1] = molecular target: Myc-GyrB-FGFR fusion protein; test: Assay measuring the kinase activity of the FGF receptor (Myc-GyrB-FGFR fusion protein); type: biochemical; conditions: Table 5; 7 μM ATP
Experimental: The following protocol describes the reagents and procedures used to analyze protein tyrosine kinase activity of the Myc-GyrB-FGFR fusion protein.
5. Add 15 μg COS/FGFR cell lysate Myc-GyrB-FGFR sources per well in HNTG for a final volume of 100 μL per well. Incubate while shaking on a micro-liter plate shaker at room temperature for 2 hours.
9. At this point diluted Compounds/Extracts are added to the ELISA plate. Transfer 10 μL of diluted test and control wells from the polypropylene plate wells to the corresponding ELISA plate wells. Incubate while shaking on a micro-liter plate shaker at room temperature for 20 minutes.
10. Add 10 μL of 70 μM ATP diluted in kinase buffer to positive control and test wells (Final ATP concentration is 7 μM/well.) Add 10 μL of 1×kinase buffer to negative control wells. Incubate while shaking on a micro-liter plate shaker at room temperature for 15 min.
22. Read assay on Dynatech MR7000 ELISA Plate Reader.
(§1) The IC50 values were measured for several of the compounds of the invention.

[2] = molecular target: EGFr (Homo sapiens, UniProt P00533); test: EGF-induced BrdU incorporation assay; type: cell-based; conditions: Table 8
[3] = system: FGFr; test: FGF-induced BrdU incorporation assay; type: cell-based; conditions: Table 8
[4] = system: HUV-EC-C cells; test: HUV-EC-C assay, aFGF (3H-thymidine incorporation); type: cell-based, human; conditions: Homo sapiens, Table 9; aFGF (ECGF)-stimulated HUV-EC-C, 3H-thymidine; read-out: aFGF IC50
Experimental: The following protocol may also be used to measure a compound's activity against PDGF-R, FGF-R, VEGF, aFGF or Flk-1/KDR, all of which are naturally expressed by HUV-EC cells.
1. […] After cells have detached from the flask, add an equal volume of assay medium and transfer to a 50 mL sterile centrifuge tube (Fisher Scientific; catalogue no. 05-539-6).
1. Make up two-fold drug titrations in separate 96-well plates, generally 50 μM on down to 0 μM. Use the same assay medium as mentioned in day 0, step 2 above. Titrations are made by adding 90 μl/well of drug at 200 μM (4×the final well concentration) to the top well of a particular plate column. Since the stock drug concentration is usually 20 mM in DMSO, the 200 μM drug concentration contains 2% DMSO.
Therefore, diluent made up to 2% DMSO in assay medium (F12K+0.5% fetal bovine serum) is used as diluent for the drug titrations in order to dilute the drug but keep the DMSO concentration constant. Add this diluent to the remaining wells in the column at 60 μl/well. Take 60 μl from the 120 μl of 200 μM drug dilution in the top well of the column and mix with the 60 μl in the second well of the column. Take 60 μl from this well and mix with the 60 μl in the third well of the column, and so on until two-fold titrations are completed. When the next-to-the-last well is mixed, take 60 μl of the 120 μl in this well and discard it. Leave the last well with 60 μl of DMSO/media diluent as a non-drug-containing control. Make 9 columns of titrated drug, enough for triplicate wells each for 1) VEGF (obtained from Pepro Tech Inc., catalogue no. 100-200, 2) endothelial cell growth factor (ECGF) (also known as acidic fibroblast growth factor, or aFGF) (obtained from Boehringer Mannheim Biochemica, catalogue no. 1439 600); or, 3) human PDGF B/B (1276-956, Boehringer Mannheim, Germany) and assay media control. ECGF comes as a preparation with sodium heparin.
2. Transfer 50 μl/well of the drug dilutions to the 96-well assay plates containing the 0.8-1.0×10^4 cells/100 μl/well of the HUV-EC-C cells from day 0 and incubate ~2 h at 37° C., 5% CO2.
3. In triplicate, add 50 μl/well of […] VEGF, 20 ng/mL ECGF, or media control to each drug condition. As with the drugs, the growth factor concentrations are 4×the desired final concentration. Use the assay media from day 0 step 2 to make the concentrations of growth factors. Incubate approximately 24 hours at 37° C., 5% CO2. Each well will have 50 μl drug dilution, 50 μl growth factor or media, and 100 ul cells, =200 ul/well total. Thus the 4×concentrations of drugs and growth factors become 1× once everything has been added to the wells.
1. Add ^3 H-thymidine (Amersham; catalogue no. TRK-686) at 1 μCi/well (10 μl/well of 100 μCi/mL solution made up in RPMI media+10% heat-inactivated fetal bovine serum) and incubate ~24 h at 37° C., 5% CO2. RPMI is obtained from Gibco BRL, catalogue no. 11875-051.
1. Thaw plates and harvest with a 96-well plate harvester (Tomtec Harvester 96®) onto filter mats (Wallac; catalogue no. 1205-401); read counts on a Wallac Betaplate™ liquid scintillation counter.
as §1

[5] = molecular target: T1, PDGFr (Homo sapiens, UniProt P09619); test: PDGF-induced BrdU incorporation assay; type: cell-based; design: expressed in transfected cells; host or cells: 3T3 cell line
Experimental: (8) 3T3 cell line genetically engineered to express human PDGF-R.
Cells were seeded at 8000 cells/well in DMEM, 10% CS, 2 mM Gln in a 96 well plate. Cells were incubated overnight at 37° C. in 5% CO2.
The negative control wells received serum free DMEM with 0.1% BSA only; the positive control cells received the ligand (PDGF) but no test compound.
The absorbance of the samples were measured at 410 nm (in "dual wavelength" mode with a filter reading at 490 nm, as a reference wavelength) on a Dynatech ELISA plate reader.

[6] = molecular target: T1, PDGFr; test: PDGF-R ELISA; type: cell-based; design: cells (U1242, obtained from Joseph Schlessinger, NYU); endogenous in cells; host or cells: U1242
Experimental: All cell culture media, glutamine, and fetal bovine serum can be purchased from Gibco Life Technologies (Grand Island, N.Y.) unless otherwise specified. […] All cell lines are routinely subcultured twice a week and are negative for mycoplasma as determined by the Mycotect method (Gibco).
For ELISA assays, cells (U1242, obtained from Joseph Schlessinger, NYU) are grown to 80-90% confluency in growth medium (MEM with 10% FBS, NEAA, 1 mM NaPyr and 2 mM GLN) and seeded in 96-well tissue culture plates in 0.5% serum at 25,000 to 30,000 cells per well. After overnight incubation in 0.5% serum-containing medium, cells are changed to serum-free medium and treated with test compound for 2 hr in a 5% CO2, 37° C. incubator. […] Lysates are incubated with shaking for 1 hour at room temperature. The plates are washed with TBST four times and then incubated with polyclonal anti-phosphotyrosine antibody at room temperature for 30 minutes. Excess anti-phosphotyrosine antibody is removed by rinsing the plate with TBST four times. Goat anti-rabbit IgG antibody is added to the ELISA plate for 30 min at room temperature followed by rinsing with TBST four more times. […] Absorbance at 410 nm with a reference wavelength of 630 nm is recorded about 15 to 30 min after ABTS addition.

[7] = molecular target: T2, FLK-1 receptor (Mus musculus, UniProt P35918); test: FLK-1 ELISA (kinase activity of the FLK-1 receptor in engineered cells); type: cell-based; conditions: Table 3; VEGF-stimulated NIH3T3 C7#3 cells; read-out: FLK-1 IC50
T2 construct: expressed in transfected cells; host or cells: NIH3T3 C7#3 cells

[8] = molecular target: T3, src protein kinase (Gallus gallus, UniProt P00523); test: Biochemical src assay - ELISA; conditions: Table 6; 5 μM ATP, biotinylated peptide substrate
T3 construct: made in house; host or cells: Schizosaccharomyces pombe (yeast transformed with src, lysate)
Experimental: This assay is used to determine src protein kinase activity measuring phosphorylation of a biotinylated peptide as the readout.
h. […] S. Pombe strain SP200 (h-s leul.32 ura4 ade210) is grown as described and transformations are pRSP expression plasmids are done by the lithium acetate method (Superti-Furga, supra). Cells are grown in the presence of 1 μM thiamine to repress expression from the nmtl promoter or in the absence of thiamine to induce expression.
2. Add 0.08 mL Kinase Reaction Mixture per well (containing 10 μL of 10×Kinase Buffer and 10 μM (final concentration) biotin-[…] per well diluted in water.
(§2) 3. Add 10 μL of compound diluted in water containing 10% DMSO and pre-incubate for 15 minutes at room temperature.
4. Start kinase reaction by adding 10 μL/well of 0.05 mM ATP in water (5 μM ATP final).
as §1

[9] = molecular target: T4, lck protein kinase (Homo sapiens, UniProt P06239); test: Biochemical lck assay - ELISA; conditions: Table 7; 10 μM ATP, GST-zeta substrate
T4 construct: made in house; host or cells: Schizosaccharomyces pombe strain SP200 (lysate)
Experimental: This assay is used to determine lck protein kinase activities measuring phosphorylation of GST-.zeta. as the readout.
b. Yeast transformed with lck. […] S. Pombe strain SP200 (h-s leul.32 ura4 ade210) is grown as described and transformations with pRSP expression plasmids are done by the lithium acetate method (Superti-Furga, supra). Cells are grown in the presence of 1 μM thiamine to induce expression.
2. Add 0.08 mL Kinase Reaction Mixture per well (containing 10 μl of 10×Kinase Buffer and 2 μg GST-.zeta. per well diluted with water).
as §2
4. Start kinase reaction by adding 10 μL/well of 0.1 mM ATP in water (10 μM ATP final).
The IC50 values were measured for one of the compounds of the invention.

[10] = Table 8, BrdU incorporation, 3.8 nM PDGF, read-out: PDGFr IC50
[11] = Table 4, ligand-stimulated U1242 cells, read-out: PDGF-R IC50

Chain of EGFr (P00533 25-1210): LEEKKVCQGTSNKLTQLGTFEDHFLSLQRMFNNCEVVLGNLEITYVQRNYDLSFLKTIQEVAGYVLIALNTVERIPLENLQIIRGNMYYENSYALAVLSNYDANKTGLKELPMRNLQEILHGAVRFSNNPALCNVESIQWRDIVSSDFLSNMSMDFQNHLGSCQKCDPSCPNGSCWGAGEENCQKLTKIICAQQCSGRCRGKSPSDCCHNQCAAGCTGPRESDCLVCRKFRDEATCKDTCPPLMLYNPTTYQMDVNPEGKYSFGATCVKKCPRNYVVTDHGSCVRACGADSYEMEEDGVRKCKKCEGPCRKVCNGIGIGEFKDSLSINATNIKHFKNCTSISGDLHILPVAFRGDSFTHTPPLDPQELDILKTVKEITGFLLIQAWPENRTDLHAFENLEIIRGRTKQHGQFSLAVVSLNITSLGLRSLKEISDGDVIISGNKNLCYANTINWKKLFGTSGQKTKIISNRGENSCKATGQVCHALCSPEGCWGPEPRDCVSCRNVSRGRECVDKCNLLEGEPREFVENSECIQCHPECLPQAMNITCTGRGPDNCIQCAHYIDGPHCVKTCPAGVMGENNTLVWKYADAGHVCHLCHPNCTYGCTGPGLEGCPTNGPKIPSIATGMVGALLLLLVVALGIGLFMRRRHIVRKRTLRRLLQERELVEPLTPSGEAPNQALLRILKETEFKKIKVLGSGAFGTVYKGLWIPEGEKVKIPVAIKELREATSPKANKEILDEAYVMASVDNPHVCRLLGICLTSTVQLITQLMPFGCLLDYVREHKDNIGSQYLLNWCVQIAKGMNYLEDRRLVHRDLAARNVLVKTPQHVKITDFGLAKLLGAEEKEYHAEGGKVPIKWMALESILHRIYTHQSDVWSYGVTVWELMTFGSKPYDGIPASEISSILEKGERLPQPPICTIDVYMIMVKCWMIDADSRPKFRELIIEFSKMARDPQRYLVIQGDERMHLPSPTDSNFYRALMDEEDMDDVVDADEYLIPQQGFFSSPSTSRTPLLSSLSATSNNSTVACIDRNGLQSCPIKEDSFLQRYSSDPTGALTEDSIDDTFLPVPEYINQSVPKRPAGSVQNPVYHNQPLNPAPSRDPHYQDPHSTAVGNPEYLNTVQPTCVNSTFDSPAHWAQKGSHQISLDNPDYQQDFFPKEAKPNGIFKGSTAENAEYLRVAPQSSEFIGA
T2 sequence (P35918 20-1345): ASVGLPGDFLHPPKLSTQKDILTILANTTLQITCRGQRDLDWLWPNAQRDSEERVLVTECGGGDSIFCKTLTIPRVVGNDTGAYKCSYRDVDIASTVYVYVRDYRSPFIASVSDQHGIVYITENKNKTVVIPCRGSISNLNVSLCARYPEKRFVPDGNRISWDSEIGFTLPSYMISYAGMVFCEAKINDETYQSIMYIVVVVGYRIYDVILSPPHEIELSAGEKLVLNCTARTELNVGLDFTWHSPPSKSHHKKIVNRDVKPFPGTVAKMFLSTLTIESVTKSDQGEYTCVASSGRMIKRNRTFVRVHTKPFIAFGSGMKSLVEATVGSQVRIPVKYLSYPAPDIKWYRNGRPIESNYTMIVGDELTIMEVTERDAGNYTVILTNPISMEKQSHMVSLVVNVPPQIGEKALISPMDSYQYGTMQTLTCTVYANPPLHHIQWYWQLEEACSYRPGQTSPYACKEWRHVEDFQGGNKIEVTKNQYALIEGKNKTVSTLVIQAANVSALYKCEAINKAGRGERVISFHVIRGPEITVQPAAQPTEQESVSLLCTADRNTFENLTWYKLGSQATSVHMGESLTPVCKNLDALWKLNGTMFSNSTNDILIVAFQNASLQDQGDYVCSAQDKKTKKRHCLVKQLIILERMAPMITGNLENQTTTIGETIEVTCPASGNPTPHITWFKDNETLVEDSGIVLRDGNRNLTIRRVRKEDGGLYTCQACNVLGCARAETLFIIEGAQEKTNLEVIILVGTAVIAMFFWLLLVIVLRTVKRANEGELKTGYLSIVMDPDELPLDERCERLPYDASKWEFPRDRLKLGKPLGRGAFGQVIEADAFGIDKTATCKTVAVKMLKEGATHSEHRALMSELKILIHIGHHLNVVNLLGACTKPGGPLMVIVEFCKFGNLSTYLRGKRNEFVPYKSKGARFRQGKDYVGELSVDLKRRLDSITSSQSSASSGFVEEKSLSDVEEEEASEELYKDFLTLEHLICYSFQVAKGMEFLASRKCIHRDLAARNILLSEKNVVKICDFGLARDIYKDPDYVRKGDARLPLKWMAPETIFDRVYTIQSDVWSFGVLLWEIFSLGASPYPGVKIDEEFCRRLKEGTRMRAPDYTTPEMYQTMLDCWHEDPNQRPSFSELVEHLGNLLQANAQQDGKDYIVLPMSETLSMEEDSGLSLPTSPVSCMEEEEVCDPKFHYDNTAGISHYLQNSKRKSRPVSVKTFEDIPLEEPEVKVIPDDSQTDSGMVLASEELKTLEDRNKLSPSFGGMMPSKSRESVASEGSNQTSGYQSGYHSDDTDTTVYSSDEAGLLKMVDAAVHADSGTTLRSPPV
T1 sequence (P09619 33-1106): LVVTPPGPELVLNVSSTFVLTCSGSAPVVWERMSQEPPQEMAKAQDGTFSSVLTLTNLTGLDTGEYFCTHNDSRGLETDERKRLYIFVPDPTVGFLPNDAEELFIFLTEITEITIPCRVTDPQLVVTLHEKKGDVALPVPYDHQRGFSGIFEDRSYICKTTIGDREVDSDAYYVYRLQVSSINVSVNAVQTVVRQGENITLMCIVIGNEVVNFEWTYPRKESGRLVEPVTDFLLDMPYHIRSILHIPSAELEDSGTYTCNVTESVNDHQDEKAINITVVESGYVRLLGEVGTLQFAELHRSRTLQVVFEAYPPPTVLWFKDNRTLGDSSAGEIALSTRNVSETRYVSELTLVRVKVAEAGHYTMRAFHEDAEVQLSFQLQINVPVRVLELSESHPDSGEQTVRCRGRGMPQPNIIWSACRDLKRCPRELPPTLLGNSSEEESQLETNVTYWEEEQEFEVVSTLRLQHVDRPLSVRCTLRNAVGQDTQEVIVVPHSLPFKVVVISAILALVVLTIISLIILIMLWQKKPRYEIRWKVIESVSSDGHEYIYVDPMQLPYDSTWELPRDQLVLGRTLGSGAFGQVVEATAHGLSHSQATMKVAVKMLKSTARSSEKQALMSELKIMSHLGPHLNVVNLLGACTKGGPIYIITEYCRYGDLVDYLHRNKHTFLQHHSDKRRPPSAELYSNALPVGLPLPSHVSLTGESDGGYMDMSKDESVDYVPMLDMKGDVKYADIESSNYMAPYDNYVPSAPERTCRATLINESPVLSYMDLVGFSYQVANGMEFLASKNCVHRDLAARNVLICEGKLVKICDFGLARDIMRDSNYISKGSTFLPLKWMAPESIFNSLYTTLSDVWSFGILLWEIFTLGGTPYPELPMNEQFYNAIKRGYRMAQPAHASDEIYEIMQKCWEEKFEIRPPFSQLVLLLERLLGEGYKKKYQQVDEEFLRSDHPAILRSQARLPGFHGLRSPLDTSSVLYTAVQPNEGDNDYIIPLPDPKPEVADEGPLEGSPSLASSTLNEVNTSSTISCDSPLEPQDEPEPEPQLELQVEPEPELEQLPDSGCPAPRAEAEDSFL
T4 sequence (P06239 whole entry): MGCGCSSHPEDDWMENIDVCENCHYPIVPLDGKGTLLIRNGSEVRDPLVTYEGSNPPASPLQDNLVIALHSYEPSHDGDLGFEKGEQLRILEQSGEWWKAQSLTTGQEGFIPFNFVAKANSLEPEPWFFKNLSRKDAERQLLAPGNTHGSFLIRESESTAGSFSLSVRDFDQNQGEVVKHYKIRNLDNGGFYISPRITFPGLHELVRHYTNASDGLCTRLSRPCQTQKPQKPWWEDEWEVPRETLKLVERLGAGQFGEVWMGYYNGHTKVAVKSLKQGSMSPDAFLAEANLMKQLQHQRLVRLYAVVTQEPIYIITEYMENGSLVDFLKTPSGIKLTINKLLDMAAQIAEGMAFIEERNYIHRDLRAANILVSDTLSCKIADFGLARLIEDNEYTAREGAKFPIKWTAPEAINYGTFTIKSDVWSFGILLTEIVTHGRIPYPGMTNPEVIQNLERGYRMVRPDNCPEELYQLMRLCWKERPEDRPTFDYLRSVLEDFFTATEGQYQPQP

| SMILES | IC50 [1] [µM] | IC50 [2] [µM] | IC50 [3] [µM] | IC50 [4] [µM] | IC50 [5, 10] [µM] | IC50 [6, 11] [µM] | IC50 [7] [µM] | IC50 [8] [µM] | IC50 [9] [µM] | IC50 [5] [µM] | IC50 [6] [µM] |
| --- | --- | --- | --- | --- | --- | --- | --- | --- | --- | --- | --- |
| COc1ccccc1-c1ccc2c(c1)NC(=O)C2=Cc1[nH]c2c(c1C)CCCC2 [6-(2-methoxyphenyl)-3-(3-methyl-4,5,6,7-tetrahydro-1H-indol-2-ylmethylene)-1,3-dihydro-indol-2-one] | > 100 | > 50 | > 50 | > 12.5 | > 50 | 95.7 |  |  |  |  |  |
| COc1cccc(-c2ccc3c(c2)NC(=O)C3=Cc2cc3c([nH]2)CCCC3)c1 [6-(3-methoxyphenyl)-3-(4,5,6,7-tetrahydro-1H-indol-2-ylmethylene)-1,3-dihydro-indol-2-one] |  | 31.8 | > 50 | > 50 | > 50 | > 100 | > 20 |  |  |  |  |
| CC(=O)c1ccc2c(c1)C(=Cc1cc3c([nH]1)CCCC3)C(=O)N2 [5-acetyl-3-(4,5,6,7-tetrahydro-1H-indol-2-ylmethylene)-1,3-dihydro-indol-2-one] | > 20 | 36.5 | > 50 | 28.8 | > 0.07 | > 100 |  | 17.8 | > 100 |  |  |
| O=C1Nc2cc(Br)ccc2C1=Cc1cc2c([nH]1)CCCC2 [6-bromo-3-(4,5,6,7-tetrahydro-1H-indol-2-ylmethylene)-1,3-dihydro-indol-2-one] | > 20 |  |  |  |  | > 100 |  |  |  |  |  |
| COc1ccc(-c2ccc3c(c2)NC(=O)C3=Cc2[nH]c3c(c2C)CCCC3)cc1 [6-(4-methoxyphenyl)-3-(3-methyl-4,5,6,7-tetrahydro-1H-indol-2-ylmethylene)-1,3-dihydro-indol-2-one] | > 100 | > 50 | > 50 | > 50 | > 50 | > 100 |  |  |  |  |  |
| COc1cccc(-c2ccc3c(c2)NC(=O)C3=Cc2[nH]c3c(c2C)CCCC3)c1 [6-(3-methoxyphenyl)-3-(3-methyl-4,5,6,7-tetrahydro-1H-indol-2-ylmethylene)-1,3-dihydro-indol-2-one] | > 20 |  |  |  |  | 5.83 | > 5 |  |  |  |  |
| Cc1cc(Br)c2c(c1)C(=Cc1cc3c([nH]1)CCCC3)C(=O)N2 [7-bromo-5-methyl-3-(4,5,6,7-tetrahydro-1H-indol-2-ylmethylene)-1,3-dihydro-indol-2-one] |  |  |  |  |  | 5.56 | > 2.5 |  |  |  |  |
| O=C1Nc2cc(-c3ccccc3)ccc2C1=Cc1cc2c([nH]1)CCCC2 [6-phenyl-3-(4,5,6,7-tetrahydro-1H-indol-2-ylmethylene)-1,3-dihydro-indol-2-one] | > 100 | > 50 | > 50 | > 12.5 | > 50 | 70.6 |  |  |  |  |  |
| COc1ccc2c(c1)NC(=O)C2=Cc1cc2c([nH]1)CCCC2 [6-methoxy-3-(4,5,6,7-tetrahydro-1H-indol-2-ylmethylene)-1,3-dihydro-indol-2-one] |  | > 50 | > 50 |  |  |  |  |  |  |  |  |
| COc1ccccc1-c1ccc2c(c1)NC(=O)C2=Cc1cc2c([nH]1)CCCC2 [6-(2-methoxyphenyl)-3-(4,5,6,7-tetrahydro-1H-indol-2-ylmethylene)-1,3-dihydro-indol-2-one] | > 100 | 34.1 | 43.6 | 14.6 |  |  |  |  |  | 1.06 | 12.3 |
| O=C1Nc2cc(Cl)ccc2C1=Cc1cc2c([nH]1)CCCC2 [6-chloro-3-(4,5,6,7-tetrahydro-1H-indol-2-ylmethylene)-1,3-dihydro-indol-2-one] | > 20 |  |  |  |  | > 100 |  |  |  |  |  |
| COc1ccc(-c2ccc3c(c2)NC(=O)C3=Cc2cc3c([nH]2)CCCC3)cc1 [6-(4-methoxyphenyl)-3-(4,5,6,7-tetrahydro-1H-indol-2-ylmethylene)-1,3-dihydro-indol-2-one] | > 100 | > 50 | > 50 | > 12.5 |  |  |  |  |  | > 50 | 94 |
| CCOc1cccc(-c2ccc3c(c2)NC(=O)C3=Cc2cc3c([nH]2)CCCC3)c1 [6-(3-ethoxyphenyl)-3-(4,5,6,7-tetrahydro-1H-indol-2-ylmethylene)-1,3-dihydro-indol-2-one] | > 20 | > 50 | > 50 | > 25 | > 50 | > 100 |  |  |  |  |  |
| O=C1Nc2cc(O)ccc2C1=Cc1cc2c([nH]1)CCCC2 [6-hydroxy-3-(4,5,6,7-tetrahydro-1H-indol-2-ylmethylene)-1,3-dihydro-indol-2-one] |  | 12.6 | 6.21 |  | 0.51 | 47.2 | 17.1 | 21 |  |  |  |
| Cc1c(C=C2C(=O)Nc3cc(Br)ccc32)[nH]c2c1CCCC2 [6-bromo-3-(3-methyl-4,5,6,7-tetrahydro-1H-indol-2-ylmethylene)-1,3-dihydro-indol-2-one] | > 20 |  |  |  |  | 40 | 2.19 |  |  |  |  |
